Experimental data reported in patent publication US12428415B2, “Matriptase 2 inhibitors and uses thereof” (Disc Medicine, Inc., priority 2018, dated 2025).

Target: T1, Human Recombinant Matriptase 2 (Homo sapiens, UniProt Q8IU80)
T1 construct: purchased Enzo Life Sciences (an in-house preparation was also used) ALX-201-752-1
T1 sequence (Q8IU80 1-811): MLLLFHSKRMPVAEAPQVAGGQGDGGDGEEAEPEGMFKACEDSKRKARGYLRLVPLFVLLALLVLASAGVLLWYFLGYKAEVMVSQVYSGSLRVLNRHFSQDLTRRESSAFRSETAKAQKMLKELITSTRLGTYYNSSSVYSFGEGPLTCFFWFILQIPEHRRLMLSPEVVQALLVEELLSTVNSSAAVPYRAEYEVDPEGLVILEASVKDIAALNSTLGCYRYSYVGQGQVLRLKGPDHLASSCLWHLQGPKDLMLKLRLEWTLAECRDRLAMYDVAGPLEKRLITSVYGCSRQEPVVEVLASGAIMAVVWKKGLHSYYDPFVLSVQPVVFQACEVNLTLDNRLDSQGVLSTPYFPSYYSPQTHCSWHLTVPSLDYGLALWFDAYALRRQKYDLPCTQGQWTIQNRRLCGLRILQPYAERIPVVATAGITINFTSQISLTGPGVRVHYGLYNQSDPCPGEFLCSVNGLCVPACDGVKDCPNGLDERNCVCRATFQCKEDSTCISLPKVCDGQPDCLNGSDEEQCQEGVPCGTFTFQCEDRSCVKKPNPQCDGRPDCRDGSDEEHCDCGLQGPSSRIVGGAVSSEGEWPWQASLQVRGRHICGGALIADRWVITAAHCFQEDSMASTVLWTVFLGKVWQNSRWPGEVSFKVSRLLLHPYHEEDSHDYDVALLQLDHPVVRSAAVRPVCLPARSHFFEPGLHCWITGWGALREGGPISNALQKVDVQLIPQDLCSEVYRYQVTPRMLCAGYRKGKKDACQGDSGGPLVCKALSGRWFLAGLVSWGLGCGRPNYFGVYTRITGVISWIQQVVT
Test: Matriptase 2 fluorescence based inhibition assay, Method A (100 mM TRIS pH 9, 1 mg/mL BSA)
Assay type: biochemical
Conditions: 1 uM compound; Assay Used = A; read-out: Mar-2 % inhibition at 1 uM
Procedure: Test compounds were evaluated for their potential to inhibit Human Recombinant Matriptase 2 (in-house and commercial protein from Enzo Life Sciences—cat log -ALX-201-752-1) using fluorescence based assay. The concentration of Recombinant Matriptase 2 and the substrate used in the assay was: 7 nM (commercial) and 15 nM (Inhouse Matriptase 2) and 100 μM (Boc-Gln-Ala-Arg-7-amido-4-methyl coumarin hydrobromide—Cat log: B4153-Sigma) respectively. The assay buffer used was 100 mM TRIS pH 9, 1 mg/mL BSA. The assay was performed using 384 well black flat bottom plate from grenier (Cat log: 781076) at 25° C. The enzyme and compound was preincubated for 30 mins, plate was read 60 mins after substrate addition at wavelength Ex: 360/Em: 480 nm. The final assay volume was 20 μl. Stock solution of compounds were initially prepared in DMSO and appropriate dilutions were made for screening and IC50 determination (final DMSO conc in the assay was 1%). All the measurements were carried out using the Spectramax M5, Molecular devices. The compounds were screened at 1 and 10 μM concentration and IC50 was determined for the interested compounds.
To determine IC50 values, dose response curves were generated by plotting percentage inhibition as a function of inhibitor concentration and the data was fitted to sigmoidal non-linear regression equation (variable slope) using Graph Pad prism software V7.

First: N/C(=N/O)c1ccc2cc(C(=O)N[C@H]3CC[C@H](N)CC3)n(Cc3cccc4ccccc34)c2c1 [Compound I-400]
Second: COc1ccc2cc(Cn3c(C(=O)N[C@H]4CC[C@H](N)CC4)cc4ccc(/C(N)=N\O)cc43)ccc2c1 [Compound I-401]
The inhibition at 1 µM of the first is higher: 25 to 50% for the first, 0 to 25% for the second.

Same assay, conditions: 1 uM; Assay Used A; read-out: Mar-2 % inhibition at 1 uM

First: N=C(N)c1ccc2cc(C(=O)Nc3cccc(-n4ccccc4=O)c3)n(Cc3ccc(C(N)=O)cc3)c2c1 [Compound I-153]
Second: CSc1cccc(NC(=O)c2cc3ccc(C(=N)N)cc3n2Cc2ccc(C(N)=O)cc2)c1 [Compound I-68]
The inhibition at 1 µM of the first is higher: 25 to 50% for the first, 0 to 25% for the second.

`N=C(N)c1ccc2cc(C(=O)Nc3cc(N4CCCC4)ccn3)n(Cc3ccc(C(N)=O)cc3)c2c1` [Compound I-179] and `CCOC(=O)NC(=N)c1ccc2cc(C(=O)Nc3cccc(N4CCCC4)n3)n(Cc3ccc(C(N)=O)cc3)c2c1` [Compound I-183, Ethyl ((1-(4-carbamoylbenzyl)-2-((6-(pyrrolidin-1-yl)pyridin-2-yl)carbamoyl)-1H-indol-6-yl)(imino)methyl)carbamate] fall in the same range of inhibition at 1 µM: 0 to 25% for the first, 0 to 25% for the second.

First: COc1ccc(CCn2c(C(=O)N[C@H]3CC[C@H](N)CC3)cc3ccc(C(=N)N)cc32)cc1 [Compound I-32]
Second: CC(C)(C)c1ccc(Cn2c(C(=O)NC3CCC(N)CC3)cc3ccc(C(=N)N)cc32)cc1 (stereo not shown) [Compound I-17]
The inhibition at 1 µM of the first is lower: 25 to 50% for the first, 50 to 75% for the second.

`N=C(N)c1ccc2cc(C(=O)Nc3ccc(C(N)=O)cc3)n(CCc3ccccc3)c2c1` [Compound I-25] and `N=C(N)c1ccc2cc(C(=O)Nc3ccc(F)cc3)n(Cc3ccc(C(N)=O)cc3)c2c1` [Compound I-59, 6-Carbamimidoyl-1-(4-carbamoylbenzyl)-N-(4-fluorophenyl)-1H-indole-2-carboxamide] fall in the same range of inhibition at 1 µM: 0 to 25% for the first, 0 to 25% for the second.

First: C[C@H](NC(=O)c1cc2ccc(C(=N)N)cc2n1Cc1ccc(C(N)=O)cc1)c1ccc(Cl)cc1 [Compound I-98]
Second: CC[C@@H](NC(=O)c1cc2ccc(C(=N)N)cc2n1Cc1ccc(C(N)=O)cc1)c1ccccc1 [Compound I-96]
The inhibition at 1 µM of the first is lower: 0 to 25% for the first, 25 to 50% for the second.

`N=C(N)c1ccc2cc(C(=O)NCC3CCCCC3)n(Cc3ccc(OC(F)(F)F)cc3)c2c1` [Compound I-12] and `N=C(N)c1ccc2cc(C(=O)NCCC3CCCCC3)n(Cc3ccc(C(N)=O)cc3)c2c1` [Compound I-195] fall in the same range of inhibition at 1 µM: 0 to 25% for the first, 0 to 25% for the second.

`CS(=O)(=O)c1cccc(NC(=O)c2cc3ccc(C(=N)N)cc3n2Cc2ccc(C(N)=O)cc2)c1` [Compound I-150] and `N=C(N)c1ccc2cc(C(=O)Nc3ccc(F)c(F)c3)n(Cc3ccc(C(N)=O)cc3)c2c1` [Compound I-87] fall in the same range of inhibition at 1 µM: 0 to 25% for the first, 0 to 25% for the second.

First: N=C(N)c1ccc2cc(C(=O)N[C@@H]3CC=CCC3)n(Cc3ccc(C(N)=O)cc3)c2c1 [Compound I-189]
Second: CC(C)(O)[C@@H](NC(=O)c1cc2ccc(C(=N)N)cc2n1Cc1ccc(C(N)=O)cc1)c1ccccc1 [Compound I-125]
The inhibition at 1 µM of the first is lower: 0 to 25% for the first, 25 to 50% for the second.

`N=C(N)c1ccc2cc(C(=O)N[C@H]3CC[C@H](N)CC3)n(CS(=O)(=O)c3ccccc3)c2c1` [Compound I-39] and `N=C(N)c1ccc2cc(C(=O)N[C@H]3CC[C@H](N)CC3)n(Cc3cccnc3)c2c1` [Compound I-18] fall in the same range of inhibition at 1 µM: 25 to 50% for the first, 25 to 50% for the second.

`N=C(NC(=O)OC1CCCCC1)c1ccc2cc(C(=O)Nc3cccc(N4CCCC4)c3)n(Cc3ccc(C(N)=O)cc3)c2c1` [Compound I-164] and `CC(C)COC(=O)NC(=N)c1ccc2cc(C(=O)Nc3cccc(N4CCCC4)c3)n(Cc3ccc(C(N)=O)cc3)c2c1` [Compound I-147] fall in the same range of inhibition at 1 µM: 0 to 25% for the first, 0 to 25% for the second.

Same assay, conditions: at 1 uM; Assay Used = A; read-out: Mar-2 % inhibition at 1 uM

`N=C(N)c1ccc2cc(C(=O)N3CCC(C(=O)NCCN)CC3)n(CCc3ccccc3)c2c1` [Compound I-357] and `N=C(N)NCCC1CCN(C(=O)c2cc3ccc(C(=N)N)cc3n2Cc2ccc(-c3ccccc3)cc2)CC1` [Compound I-361] fall in the same range of inhibition at 1 µM: 0 to 25% for the first, 0 to 25% for the second.

`N=C(N)c1ccc2c(N)c(C(=O)N3CCC(CCN)CC3)n(Cc3ccc(Oc4ccccc4)cc3)c2c1` [Compound I-348] and `N=C(N)c1ccc2cc(C(=O)N3CCC(CCN)CC3)n(Cc3ccc(C(F)(F)F)cc3)c2c1` [Compound I-278] fall in the same range of inhibition at 1 µM: 0 to 25% for the first, 0 to 25% for the second.

`N=C(N)c1ccc2cc(C(=O)N3CCC(F)(F)CC3)n(CCS(=O)(=O)c3ccccc3)c2c1` [Compound I-344] and `N=C(N)c1ccc2cc(C(=O)N3CCC4CCCCC4C3)n(CCS(=O)(=O)c3ccccc3)c2c1` (stereo not shown) [Compound I-339] fall in the same range of inhibition at 1 µM: 0 to 25% for the first, 0 to 25% for the second.

`CN(C)C(=O)c1ccc(Cn2c(C(=O)N3CCC(F)(F)C3)cc3ccc(C(=N)N)cc32)cc1` [Compound I-386] and `CCNC(=O)c1ccc(Cn2c(C(=O)N3CCC(F)(F)C3)cc3ccc(C(=N)N)cc32)cc1` [Compound I-385, 4-((6-Carbamimidoyl-2-(3,3-difluoropyrrolidine-1-carbonyl)-1H-indol-1-yl)methyl)-N-ethylbenzamide] fall in the same range of inhibition at 1 µM: 0 to 25% for the first, 0 to 25% for the second.

First: CC(C)(O)CNC(=O)c1cc2ccc(C(=N)N)cc2n1Cc1ccc(C(N)=O)cc1 [Compound I-208]
Second: CN1CCC(NC(=O)c2cc3ccc(C(=N)N)cc3n2Cc2ccc(C(N)=O)cc2)CC1 [Compound I-206]
The inhibition at 1 µM of the first is lower: 0 to 25% for the first, 25 to 50% for the second.

`N=C(N)c1ccc2cc(C(=O)N3CCCC4CCCCC43)n(CCS(=O)(=O)c3ccccc3)c2c1` (stereo not shown) [Compound I-338] and `N=C(N)c1ccc2cc(C(=O)NCC3CCCCC3)n(Cc3ccc(C(N)=O)cc3F)c2c1` [Compound I-227, 6-Carbamimidoyl-1-(2-Fluoro-4-carbamoyl-benzyl)-N-(cyclohexylmethyl)-1H-indole-2-carboxamide] fall in the same range of inhibition at 1 µM: 0 to 25% for the first, 0 to 25% for the second.

`N=C(N)c1ccc2cc(C(=O)N3CCC(F)(F)C3)n(Cc3ccc(C(F)(F)F)cc3)c2c1` [Compound I-285] and `N=C(N)c1ccc2cc(C(=O)N3CC[C@H](F)C3)n(Cc3ccc(NC(=O)CCN)cc3)c2c1` [Compound I-375] fall in the same range of inhibition at 1 µM: 0 to 25% for the first, 0 to 25% for the second.

`CCc1ccc(-c2cccc(Cn3c(C(=O)NC4CCC(N)CC4)cc4ccc(C(=N)N)cc43)c2)cc1` (stereo not shown) [Compound I-238] and `CCOc1ccc(-c2cccc(Cn3c(C(=O)N[C@H]4CC[C@H](N)CC4)cc4ccc(C(=N)N)cc43)c2)cc1` [Compound I-239] fall in the same range of inhibition at 1 µM: 25 to 50% for the first, 25 to 50% for the second.

First: N=C(N)NCCC1CCN(C(=O)c2cc3ccc(C(=N)N)cc3n2Cc2ccc3ccccc3c2)CC1 [Compound I-360]
Second: N=C(N)c1ccc2cc(C(=O)N3CCc4ccccc4C3)n(Cc3ccc(NC(=O)CCN)cc3)c2c1 [Compound I-378]
The inhibition at 1 µM of the first is higher: 25 to 50% for the first, 0 to 25% for the second.

First: N=C(N)c1ccc2cc(C(=O)NC3CCC(N)CC3)n(Cc3ccc(Oc4ccc(F)cc4)cc3)c2c1 (stereo not shown) [Compound I-243]
Second: CC1CCC(NC(=O)c2c(Cl)c3ccc(C(=N)N)cc3n2Cc2ccc(C(N)=O)cc2)CC1 (stereo not shown) [Compound I-214]
The inhibition at 1 µM of the first is higher: 50 to 75% for the first, 0 to 25% for the second.

`N=C(N)c1ccc2c(Cl)c(C(=O)NCC3CCCCC3)n(Cc3ccc(-c4ccccc4)cc3)c2c1` [Compound I-236] and `N=C(N)c1ccc2cc(C(=O)N3CCc4ccccc4C3)n(Cc3ccc(-c4ccccc4)cc3)c2c1` [Compound I-311] fall in the same range of inhibition at 1 µM: 0 to 25% for the first, 0 to 25% for the second.

`CC(C)CCn1c(C(=O)N2CC[C@H](F)C2)cc2ccc(C(=N)N)cc21` [Compound I-272] and `N=C(N)c1ccc2cc(C(=O)Nc3nc4ccccc4s3)n(Cc3ccc(C(N)=O)cc3)c2c1` [Compound I-265] fall in the same range of inhibition at 1 µM: 0 to 25% for the first, 0 to 25% for the second.
